We go through 20 molecules from patent US10548899B2, “Quinazolinone and benzotriazinone compounds with cholinergic muscarinin M1 receptor positive allosteric modulator activity” (TAKEDA PHARMACEUTICAL COMPANY LIMITED, priority 2015, dated 2020).

For this experiment, the target named is T1, human M1 receptor (hCHRM1) (Homo sapiens, UniProt P11229).
T1 construct: expressed in transfected cells; host or cells: CHO-K1
T1 sequence (P11229 1-460): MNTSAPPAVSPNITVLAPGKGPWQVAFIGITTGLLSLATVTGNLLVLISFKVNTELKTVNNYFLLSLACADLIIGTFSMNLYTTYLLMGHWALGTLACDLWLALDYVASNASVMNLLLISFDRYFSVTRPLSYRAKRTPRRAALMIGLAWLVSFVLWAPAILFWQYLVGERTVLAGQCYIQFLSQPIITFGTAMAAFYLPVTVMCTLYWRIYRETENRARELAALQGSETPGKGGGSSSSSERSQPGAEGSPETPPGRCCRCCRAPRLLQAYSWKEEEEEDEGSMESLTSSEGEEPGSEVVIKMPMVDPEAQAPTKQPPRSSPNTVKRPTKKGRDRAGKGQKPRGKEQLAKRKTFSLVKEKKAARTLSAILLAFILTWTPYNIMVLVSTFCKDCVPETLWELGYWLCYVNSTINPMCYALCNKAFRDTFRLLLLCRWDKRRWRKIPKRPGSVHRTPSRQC
In words: Measurement of M1 receptor positive allosteric modulator (M1PAM) activity (calcium fluorescence, Fluo-4, FDSS). The class given is cell-based. Particulars: for activity (%) at 10 μM: 10 μM test compound, acetylcholine EC20 (final 0.8 nM) present, 100% = acetylcholine 1 μM, 0% = DMSO, CHO-K1 hCHRM1 cells; for EC50: inflection point of concentration-dependent curve, CHO-K1 cells stably expressing hCHRM1, in presence of acetylcholine at EC20 concentration (final 0.8 nM), read-out: IP value. As to the method: Measurement of M1 receptor positive allosteric modulator (M1PAM) activity
The activity of a test compound in the presence of acetylcholine at EC20 concentration (final concentration 0.8 nM), which affords an action corresponding to about 20% of the maximum activity, was measured as PAM activity. The method is as follows. CHO-K1 cells stably expressing a human M1 receptor (hCHRM1) were plated on a 384-well black clear bottom plate (BD Falcon) at 5,000 cells/well, and cultured in an incubator at 37° C., 5% CO2 for 1 day. The medium in the cell plate was removed, and assay buffer A containing a calcium indicator (Recording medium (DOJINDO LABORATORIES), 0.1% BSA (Wako Pure Chemical Industries, Ltd.), 2.5 μg/mL Fluo-4 AM (DOJINDO LABORATORIES), 0.08% Pluronic F127 (DOJINDO LABORATORIES) and 1.25 mM probenecid (DOJINDO LABORATORIES) were added at 30 μL/well. The cells were left standing in the incubator at 37° C., 5% CO2 for 30 min, and further left standing at room temperature for 30 min. A test compound prepared by diluting with assay buffer B (HESS (Invitrogen), 20 mM HEPES (Invitrogen), 0.1% BSA) containing 3.2 nM acetylcholine was added at 10 μL/well, and the fluorescence was measured by FDSS/μcell (Hamamatsu Photonics K.K.) for 1 min every for 1 second. With the definition that the amount of change in the fluorescence on addition of acetylcholine (final concentration 1 μM) is 100% and that on addition of DMSO instead of a test compound is 0%, the activity (%) of the test compound was calculated, and the inflection point in the concentration-dependent curve of the test compound was calculated as IP values.

Regarding `Cc1c(Cc2ccc(-n3cccn3)cc2)cc2c(=O)n([C@H]3CCCC[C@@H]3O)cnc2c1C` (relative stereo) [Example 1, 3-(trans-2-hydroxycyclohexyl)-7,8-dimethyl-6-(4-(1H-pyrazol-1-yl)benzyl)quinazolin-4(3H)-one], the “activity (%) at 10 μM” value stood at 92% and the EC50 was 52 nM.
As for `Cc1c(Cc2ccc(-n3cccn3)cc2)cc2c(=O)n([C@H]3CCC[C@@H]3O)cnc2c1C` (relative stereo) [Example 2, 3-(trans-2-hydroxycyclopentyl)-7,8-dimethyl-6-(4-(1H-pyrazol-1-yl)benzyl)quinazolin-4(3H)-one], the “activity (%) at 10 μM” value was found to be 96% and the EC50 came to 61 nM.
In the case of `Cc1c(Cc2ccc(-n3cccn3)cc2)cc2c(=O)n([C@H]3COCC[C@@H]3O)cnc2c1C` (relative stereo) [Example 3, 3-(trans-4-hydroxytetrahydro-2H-pyran-3-yl)-7,8-dimethyl-6-(4-(1H-pyrazol-1-yl)benzyl)quinazolin-4(3H)-one], the “activity (%) at 10 μM” value is 98% and the EC50 stood at 15 nM.
The matching figures for `Cc1c(Cc2ccc(-c3cn(C)nn3)cc2)cc2c(=O)n([C@H]3CCC[C@@H]3O)cnc2c1C` (relative stereo) [Example 11, 3-(trans-2-hydroxycyclopentyl)-7,8-dimethyl-6-(4-(1-methyl-1H-1,2,3-triazol-4-yl)benzyl)quinazolin-4(3H)-one]: 101% and 15 nM.
On to `Cc1cc(-c2ccc(Cc3cc4c(=O)n([C@H]5CCC[C@@H]5O)cnc4c(C)c3C)cn2)ccn1` (relative stereo) [Example 12, 3-(trans-2-hydroxycyclopentyl)-7,8-dimethyl-6-((2′-methyl-2,4′-bipyridin-5-yl)methyl)quinazolin-4(3H)-one], for which the “activity (%) at 10 μM” value turned out to be 99% and the EC50 came out at 39 nM.
On the same counts, the results for `Cc1c(Cc2ccc(-c3cn(C)nn3)nc2)cc2c(=O)n([C@H]3CCC[C@@H]3O)cnc2c1C` (relative stereo) [Example 14, 3-(trans-2-hydroxycyclopentyl)-7,8-dimethyl-6-((6-(1-methyl-1H-1,2,3-triazol-4-yl)pyridin-3-yl)methyl)quinazolin-4(3H)-one] are 100% and 11 nM.
For the molecule `Cc1c(Cc2ccc(-c3cnn(C)c3)nc2)cc2c(=O)n([C@H]3CCC[C@@H]3O)cnc2c1C` (relative stereo) [Example 15, 3-(trans-2-hydroxycyclopentyl)-7,8-dimethyl-6-((6-(1-methyl-1H-pyrazol-4-yl)pyridin-3-yl)methyl)quinazolin-4(3H)-one], the “activity (%) at 10 μM” value is recorded as 100% and the EC50 was determined as 11 nM.
Consider `Cc1c(Cc2ccc(-c3cnn(C)c3)cc2)cc2c(=O)n([C@H]3CCC[C@@H]3O)cnc2c1C` (relative stereo) [Example 17, 3-(trans-2-hydroxycyclopentyl)-7,8-dimethyl-6-(4-(1-methyl-1H-pyrazol-4-yl)benzyl)quinazolin-4(3H)-one], for which the “activity (%) at 10 μM” value was found to be 90% and the EC50 came to 55 nM.
The matching figures for `Cc1c(Cc2ccc(Cl)nc2)cc2c(=O)n([C@H]3CCCC[C@@H]3O)cnc2c1C` (relative stereo) [Example 19, 6-((6-chloropyridin-3-yl)methyl)-3-(trans-2-hydroxycyclohexyl)-7,8-dimethylquinazolin-4(3H)-one]: 97% and 66 nM.
On the same counts, the results for `COc1cc(Cc2ccc(-c3cnn(C)c3)cc2)cc2c(=O)n([C@H]3CCC[C@@H]3O)cnc12` (relative stereo) [Example 20, 3-(trans-2-hydroxycyclopentyl)-8-methoxy-6-(4-(1-methyl-1H-pyrazol-4-yl)benzyl)quinazolin-4(3H)-one] are 97% and 61 nM.
On the same counts, the results for `Cc1cc2ncn([C@H]3CCC[C@@H]3O)c(=O)c2cc1Cc1ccc(-c2cn(C)nn2)cc1` (relative stereo) [Example 21, 3-(trans-2-hydroxycyclopentyl)-7-methyl-6-(4-(1-methyl-1H-1,2,3-triazol-4-yl)benzyl)quinazolin-4(3H)-one] are 97% and 51 nM.
Regarding `Cc1ccc(Cc2cc3c(=O)n([C@H]4CCCC[C@@H]4O)cnc3c(C)c2C)cn1` (relative stereo) [Example 35, 3-(trans-2-hydroxycyclohexyl)-7,8-dimethyl-6-((6-methylpyridin-3-yl)methyl)quinazolin-4(3H)-one], the “activity (%) at 10 μM” value came to 96% and the EC50 was found to be 41 nM.
On the same counts, the results for `Cc1c(Cc2ccc(-c3cn(C)nn3)cc2)cc2c(=O)n([C@H]3CCC[C@@H]3O)nnc2c1C` (relative stereo) [Example 40, 3-(trans-2-hydroxycyclopentyl)-7,8-dimethyl-6-(4-(1-methyl-1H-1,2,3-triazol-4-yl)benzyl)-1,2,3-benzotriazin-4(3H)-one] are 94% and 70 nM.
As for `Cc1c(Cc2ccc(-n3ccnc3)nc2)cc2c(=O)n([C@H]3COCC[C@@H]3O)nnc2c1C` (relative stereo) [Example 42, 3-(trans-4-hydroxytetrahydro-2H-pyran-3-yl)-6-((6-(1H-imidazol-1-yl)pyridin-3-yl)methyl)-7,8-dimethyl-1,2,3-benzotriazin-4(3H)-one], the “activity (%) at 10 μM” value is given as 100% and the EC50 came to 31 nM.
For the molecule `Cc1c(Cc2ccc(-c3ccn(C)n3)cc2)cc2c(=O)n([C@H]3COCC[C@@H]3O)nnc2c1C` (relative stereo) [Example 46, 3-(trans-4-hydroxytetrahydro-2H-pyran-3-yl)-7,8-dimethyl-6-(4-(1-methyl-1H-pyrazol-3-yl)benzyl)-1,2,3-benzotriazin-4(3H)-one], the “activity (%) at 10 μM” value was 97% and the EC50 was determined as 32 nM.
The matching figures for `Cc1c(Cc2ccc(-c3cn(C)nn3)cc2)cc2c(=O)n([C@H]3CCC[C@@H]3O)cnc2c1C` (single isomer, unassigned) [Example 22, 3-(trans-2-hydroxycyclopentyl)-7,8-dimethyl-6-(4-(1-methyl-1H-1,2,3-triazol-4-yl)benzyl)quinazolin-4(3H)-one]: 95% and 79 nM.
On the same counts, the results for `Cc1c(Cc2ccc(-c3cn(C)nn3)cc2)cc2c(=O)n([C@@H]3CCC[C@H]3O)cnc2c1C` (single isomer, unassigned) [Example 23, 3-(trans-2-hydroxycyclopentyl)-7,8-dimethyl-6-(4-(1-methyl-1H-1,2,3-triazol-4-yl)benzyl)quinazolin-4(3H)-one] are 88% and 13 nM.
The matching figures for `Cc1c(Cc2ccc(-c3cnn(C)c3)nc2)cc2c(=O)n([C@H]3CCC[C@@H]3O)cnc2c1C` (single isomer, unassigned) [Example 50, 3-(trans-2-hydroxycyclopentyl)-7,8-dimethyl-6-((6-(1-methyl-1H-pyrazol-4-yl)pyridin-3-yl)methyl)quinazolin-4(3H)-one]: 102% and 6.5 nM.
Turning to `Cc1c(Cc2ccc(-c3cnn(C)c3)nc2)cc2c(=O)n([C@H]3CCC[C@@H]3O)cnc2c1C` (single isomer, unassigned) [Example 51, 3-(trans-2-hydroxycyclopentyl)-7,8-dimethyl-6-((6-(1-methyl-1H-pyrazol-4-yl)pyridin-3-yl)methyl)quinazolin-4(3H)-one], the “activity (%) at 10 μM” value is on record as 97% and the EC50 stood at 79 nM.
As to `Cc1c(Cc2ccc(-n3cccn3)cc2)cc2c(=O)n([C@H]3COCC[C@@H]3O)cnc2c1C` (single isomer, unassigned) [Example 52, 3-(trans-4-hydroxytetrahydro-2H-pyran-3-yl)-7,8-dimethyl-6-(4-(1H-pyrazol-1-yl)benzyl)quinazolin-4(3H)-one], the “activity (%) at 10 μM” value was 98% and the EC50 was found to be 6 nM.
